Measurements taken from patent US20240217990A1 (Gilead Sciences, Inc., priority 2021, published 2024).

How the values were obtained:
TLR7 = target: T1, TLR7 (Homo sapiens, UniProt Q9NYK1); assay: TLR7 human PBMC cell-based assay (antagonist, GS-986 stimulated cytokine release); conditions: human PBMCs; TLR7 agonist GS-986 400 nM, 6 hours; cytokines (IL-6 and IFNα) in supernatant; read-out: TLR-7 EC50
T1 construct: Human peripheral blood mononuclear cells (PBMCs) consist of lymphocytes, monocytes and dendritic cells that express TLR7, TLR8 and TLR9; endogenous in cells; host or cells: cryopreserved human PBMCs from healthy donors
T1 sequence (Q9NYK1 27-1049): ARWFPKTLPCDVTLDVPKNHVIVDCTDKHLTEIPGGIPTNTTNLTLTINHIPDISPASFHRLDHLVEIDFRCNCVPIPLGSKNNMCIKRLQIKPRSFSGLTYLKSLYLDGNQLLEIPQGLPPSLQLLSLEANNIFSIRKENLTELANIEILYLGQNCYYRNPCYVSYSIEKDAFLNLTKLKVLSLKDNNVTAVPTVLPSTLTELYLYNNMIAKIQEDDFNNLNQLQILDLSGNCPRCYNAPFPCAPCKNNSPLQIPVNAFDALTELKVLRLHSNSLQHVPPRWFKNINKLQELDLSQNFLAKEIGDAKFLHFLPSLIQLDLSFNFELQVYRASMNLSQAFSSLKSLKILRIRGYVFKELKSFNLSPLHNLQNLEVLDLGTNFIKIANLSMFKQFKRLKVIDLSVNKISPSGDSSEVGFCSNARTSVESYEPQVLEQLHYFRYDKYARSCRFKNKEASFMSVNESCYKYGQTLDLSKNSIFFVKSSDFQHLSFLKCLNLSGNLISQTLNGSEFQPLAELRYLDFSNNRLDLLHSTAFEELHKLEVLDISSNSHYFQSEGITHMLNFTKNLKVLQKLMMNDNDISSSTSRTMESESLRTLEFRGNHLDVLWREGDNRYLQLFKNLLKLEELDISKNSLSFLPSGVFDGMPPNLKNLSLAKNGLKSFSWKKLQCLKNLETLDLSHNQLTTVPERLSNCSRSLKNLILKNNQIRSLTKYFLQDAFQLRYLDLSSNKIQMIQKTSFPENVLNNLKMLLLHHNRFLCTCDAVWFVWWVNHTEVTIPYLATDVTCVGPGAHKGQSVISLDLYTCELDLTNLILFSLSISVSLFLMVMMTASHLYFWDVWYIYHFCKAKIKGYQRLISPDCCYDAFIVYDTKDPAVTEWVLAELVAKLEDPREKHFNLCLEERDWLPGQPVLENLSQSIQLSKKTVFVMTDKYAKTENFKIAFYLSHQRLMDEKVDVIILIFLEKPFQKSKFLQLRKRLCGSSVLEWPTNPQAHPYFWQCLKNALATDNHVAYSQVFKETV
Text: (§1) Human peripheral blood mononuclear cells (PBMCs) consist of lymphocytes, monocytes and dendritic cells that express TLR7, TLR8 and TLR9. These cells respond to TLR7, TLR8 and TLR9 ligand stimulation and produce cytokines and chemokines in vitro and in vivo. Human PBMCs are therefore suitable to be used in a cell-based assay to assess the in vitro potency of a TLR 7, 8, and/or 9 antagonist. The result is expected to be more translatable to the pharmacodynamics response in vivo than cell line-based assays.
Cryopreserved human PBMCs from healthy donors were thawed and resuspended in RPMI-1640 media with L-glutamine (Corning) supplemented with 10% Fetal Bovine Serum (Hyclone) and 1× Penicillin-Streptomycin (Corning). After counting, the cell density was adjusted to 2 million cells/ml and incubated for 1 hour at 37° C., 5% CO2 for recovery. Following the recovery, the cells were plated by adding 50 μl per well (100,000 cells) to 384-well cell culture plates (Greiner) containing 250 nl of test antagonists in 100% DMSO per well, in a 10 points dose response in quadruplicates. PBMCs were incubated in the presence of test antagonists for one hour at 37° C., 5% CO2 before being stimulated with a TLR7 or TLR9agonist. GS-986 (Gilead Sciences) was used as the TLR7 agonist at a final concentration of 400 nM. ODN-2216 (InvivoGen) was used as the TLR9 agonist at a final concentration of 3 μM. PBMCs were incubated in the presence of the test antagonist and the TLR7 (or TLR9) agonist for an additional 6 hours at 37° C., 5% CO2. At the end of the incubation, the cell culture plates were centrifuged at 500 g for 5 min, and the cell culture supernatant was collected. The level of cytokines (IL-6 and IFNα) in the supernatant was measured by electrochemiluminescence immunoassays (Mesoscale Discovery) following manufacturer's recommended protocols. The level of cytokine measured was plotted against the test antagonist concentration and fitted to a sigmoidal function to determine the EC50, which are shown below in Table 11.

TLR8 = target: T2, TLR8 (Homo sapiens, UniProt Q9NR97); assay: TLR8 human PBMC cell-based assay (antagonist, Compound A stimulated cytokine release); conditions: human PBMCs; TLR8 agonist Compound A 800 nM, 6 hours; cytokines (TNFa and IL 12p40) in supernatant; read-out: TLR-8 EC50
T2 construct: Human peripheral blood mononuclear cells (PBMCs) consist of lymphocytes, monocytes and dendritic cells that express TLR7, TLR8 and TLR9; endogenous in cells; host or cells: cryopreserved human PBMCs from healthy donors
T2 sequence (Q9NR97 27-1041): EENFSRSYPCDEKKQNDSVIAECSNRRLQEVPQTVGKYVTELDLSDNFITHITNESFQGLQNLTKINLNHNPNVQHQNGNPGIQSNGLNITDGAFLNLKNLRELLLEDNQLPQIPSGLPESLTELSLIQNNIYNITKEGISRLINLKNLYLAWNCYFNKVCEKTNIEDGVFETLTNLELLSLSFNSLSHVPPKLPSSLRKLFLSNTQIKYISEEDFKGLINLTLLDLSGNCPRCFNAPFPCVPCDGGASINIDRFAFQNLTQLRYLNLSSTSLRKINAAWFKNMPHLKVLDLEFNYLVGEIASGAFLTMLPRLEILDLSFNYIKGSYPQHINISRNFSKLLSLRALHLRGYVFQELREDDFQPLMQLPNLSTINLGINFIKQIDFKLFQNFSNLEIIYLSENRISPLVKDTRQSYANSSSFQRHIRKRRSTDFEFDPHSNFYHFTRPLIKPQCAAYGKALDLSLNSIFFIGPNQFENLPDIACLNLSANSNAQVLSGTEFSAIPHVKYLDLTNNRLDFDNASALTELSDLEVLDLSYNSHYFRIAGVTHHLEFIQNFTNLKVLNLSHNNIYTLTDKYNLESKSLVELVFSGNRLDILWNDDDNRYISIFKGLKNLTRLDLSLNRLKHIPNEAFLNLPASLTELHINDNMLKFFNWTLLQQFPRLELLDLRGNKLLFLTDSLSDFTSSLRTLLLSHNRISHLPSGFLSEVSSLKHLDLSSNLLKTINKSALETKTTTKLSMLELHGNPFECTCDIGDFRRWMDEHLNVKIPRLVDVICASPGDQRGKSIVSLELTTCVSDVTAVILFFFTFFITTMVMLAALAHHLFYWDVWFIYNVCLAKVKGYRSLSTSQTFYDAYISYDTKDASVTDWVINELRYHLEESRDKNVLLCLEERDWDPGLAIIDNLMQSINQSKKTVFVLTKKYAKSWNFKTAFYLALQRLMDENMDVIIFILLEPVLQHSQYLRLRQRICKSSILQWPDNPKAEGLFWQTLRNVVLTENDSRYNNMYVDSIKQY
Text: as §1
Cryopreserved human PBMCs from healthy donors were thawed and resuspended in RPMI-1640 media with L-glutamine (Corning) supplemented with 10% Fetal Bovine Serum (Hyclone) and 1X Penicillin-Streptomycin (Corning). After counting, the cell density was adjusted to 2 million cells/ml and incubated for 1 hour at 37° C., 5% CO2 for recovery. Following the recovery, the cells were plated by adding 50 μl per well (100,000 cells) to 384-well cell culture plates (Greiner) containing 250 nl of test antagonists in 100% DMSO per well, in a 10 points dose response in quadruplicates. PBMCs were incubated in the presence of antagonists for one hour at 37° C., 5% CO2 before being stimulated with TLR8 agonist. Compound A (Gilead Sciences, U.S. Pat. No. 10,285,990) was used as the TLR8 agonist at a final concentration of 800 nM. PBMCs were incubated in the presence of antagonist and the TLR8 agonist for an additional 6 hours at 37° C., 5% CO2. At the end of the incubation, the cell culture plates were centrifuged at 500 g for 5 min, and the cell culture supernatant was collected. The level of cytokines (TNFa and IL 12p40) in the supernatant was measured by electrochemiluminescence immunoassays (Mesoscale Discovery) following manufacturer's recommended protocols. The level of cytokine measured was plotted against the antagonist concentration and fitted to a sigmoidal function to determine the EC50, which are shown below in Table 11.

EC50 (TLR7) [nM]	EC50 (TLR8) [nM]	Compound
18.6	14.2	Cc1cc(-c2[nH]c3cc(-c4nc5ccncc5[nH]4)sc3c2C(C)C)cn2ncnc12 [Example 236]
24.5	14.6	Cc1cc(-c2[nH]c3cc(C4CCCN(CC(N)=O)C4)sc3c2C(C)C)cn2ncnc12 (centres unmarked) [Example 171]
46.1	41.2	Cc1cc(-c2[nH]c3cc(C(=O)N4CCC(O)CC4)sc3c2C(C)C)cn2ncnc12 [Example 44]
1.6	14	Cc1cc(-c2[nH]c3cc(C(=O)N(C)[C@H]4[C@@H]5CNC[C@@H]54)sc3c2C(C)C)cn2ncnc12 [Example 75]
0.6	2.8	Cc1cc(-c2[nH]c3cc(C(=O)N4CCC[C@H]5NCC[C@H]54)sc3c2C(C)C)cn2ncnc12 [Example 108]
4.1	3.2	Cc1cc(-c2[nH]c3cc(C4CCN(CCS(C)(=O)=O)CC4)sc3c2C(C)C)cn2ncnc12 [Example 255, 6-isopropyl-5-(8-methyl-[1,2,4]triazolo[1,5-a]pyridin-6-yl)-2-(1-(2-(methylsulfonyl)ethyl)piperidin-4-yl)-4H-thieno[3,2-b]pyrrole]
0.6	1.6	Cc1cc(-c2[nH]c3cc(-c4cnn(C5CCNC5)c4)sc3c2C(C)C)cn2ncnc12 (centres unmarked) [Example 226]
0.56	10.4	Cc1cc(-c2[nH]c3cc(C4CC5CCC(C4)N5CC(N)=O)sc3c2C(C)C)cn2ncnc12 (centres unmarked) [Example 299]
1.3	0.6	Cc1cc(-c2[nH]c3cc(C(=O)N4CCNC(C)(C)C4)sc3c2C(C)C)cn2ncnc12 [Example 85]
60	92	Cc1cc(-c2[nH]c3cc(C(=O)N(C)[C@H]4CCCNC4)sc3c2C(C)C)cc(C)n1 [Example 29]
0.2	9.3	Cc1cc(-c2[nH]c3cc(C4=NCC5(CCNCC5)O4)sc3c2C(C)C)cn2ncnc12 [Example 70]
8.1	8.4	Cc1cc(-c2[nH]c3cc(-c4cccc(N5CCNCC5)c4)sc3c2C(C)C)cn2ncnc12 [Example 234]
4.1	11.6	Cc1cc(-c2[nH]c3cc(C(=O)N(C)CCN4CCCC4)sc3c2C(C)C)cn2ncnc12 [Example 99]
1.37	3.47	Cc1nc2c(C)cc(-c3[nH]c4cc(C5CCN(CC(N)=O)CC5)sc4c3C(C)C)cn2n1 [Example 283]
3.3	1	Cc1cc(-c2[nH]c3cc(-c4cnc5c(c4)CCNC5)sc3c2C(C)C)cn2ncnc12 [Example 218]
0.5	4.6	Cc1cc(-c2[nH]c3cc(C(=O)N4CCC5CNCCC54)sc3c2C(C)C)cn2ncnc12 (centres unmarked) [Example 88]
0.2	2.8	Cc1cc(-c2[nH]c3cc(C4CCN(S(=O)(=O)C5CCNCC5)CC4)sc3c2C(C)C)cn2ncnc12 [Example 184]
2.4	6.5	Cc1cc(-c2[nH]c3cc(C(=O)N(C)[C@@H]4CCCNC4)sc3c2C(C)C)cn2ncnc12 [Example 153]
10.5	10.5	Cc1cc(-c2[nH]c3cc(C(=O)N4C[C@@H]5[C@@H](N)[C@@H]5C4)sc3c2C(C)C)cn2ncnc12 [Example 74]
2.8	14.2	Cc1cc(-c2[nH]c3cc(-c4nc5ccc(N6CCNCC6)cc5n4C)sc3c2C(C)C)cn2ncnc12 [Example 238]
	10.5	Cc1cc(-c2[nH]c3cc(C4CCC5(CCNC5)C4)sc3c2C(C)C)cn2ncnc12 (centres unmarked) [Example 278]
11.1		Cc1cc(-c2[nH]c3cc(C(=O)N4CCC[C@H](N)[C@@H]4C)sc3c2C(C)C)cc(C)n1 [Example 33]
103		Cc1cc(-c2[nH]c3cc(C(=O)N4CC[C@H](F)[C@@H](N)C4)sc3c2C(C)C)cc(C)n1 [Example 26]
240		Cc1cc(-c2[nH]c3cc(C(=O)N4CC[C@H](N)C4)sc3c2C(C)C)cn(C)c1=O [Example 35]
10.3		Cc1cc(-c2[nH]c3cc(C(=O)N(C)C4CCNCC4(C)C)sc3c2C(C)C)cc(C)n1 (centres unmarked) [Example 37]
682		Cc1cc(-c2[nH]c3cc(C(=O)N4CCN5CCOC[C@H]5C4)sc3c2C(C)C)cc(C)n1 [Example 41]
489		Cc1cc(-c2[nH]c3cc(C(=O)N4CCN5CCOC[C@@H]5C4)sc3c2C(C)C)cc(C)n1 [Example 42]
